In PubChem BioAssay AID330 (DTP/NCI, 2004):
Where “and” joins values, the source holds several entries; their conditions need not be identical. Equal entries are not always repeated. Toxic doses and inconclusive results are not listed. Peptide text beside a SMILES is read from it. * marks the point of attachment. Cbz = O=C(OCc1ccccc1)*

System: P388 leukemia ip, CD2F1 mice, survival T/C
Experiment: NCI In Vivo Anticancer Drug Screen. Data for tumor model P388 Leukemia (intraperitoneal) in CD2F1 (CDF1) mice
Conditions: endpoint: median survival time, higher = longer survival
Procedure, shortened: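 Mice carrying the transplanted tumor received test compound or vehicle. Survival was recorded in each group, and the value is the treated-group measurement divided by that of the vehicle-treated control group.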

[1] = dose: 60.0 mg/kg/injection, schedule: Q01DX005 (ip), vehicle: saline with Tween-80
[2] = dose: 120.0 mg/kg/injection, schedule: Q01DX005 (ip), vehicle: saline with Tween-80
[3] = dose: 240.0 mg/kg/injection, schedule: Q01DX005 (ip), vehicle: saline with Tween-80
[4] = dose: 50.0 mg/kg/injection, schedule: Q01DX009 (ip), vehicle: Klucel (hydroxypropylcellulose) (HPC)
[5] = dose: 100.0 mg/kg/injection, schedule: Q01DX009 (ip), vehicle: Klucel (hydroxypropylcellulose) (HPC)
[6] = dose: 200.0 mg/kg/injection, schedule: Q01DX009 (ip), vehicle: Klucel (hydroxypropylcellulose) (HPC)
[7] = dose: 100.0 mg/kg/injection, schedule: Q01DX001 (ip), vehicle: saline
[8] = dose: 200.0 mg/kg/injection, schedule: Q01DX001 (ip), vehicle: saline
[9] = dose: 400.0 mg/kg/injection, schedule: Q01DX001 (ip), vehicle: saline
[10] = dose: 50.0 mg/kg/injection, schedule: Q01DX005 (ip), vehicle: saline with Tween-80
[11] = dose: 100.0 mg/kg/injection, schedule: Q01DX005 (ip), vehicle: saline with Tween-80
[12] = dose: 200.0 mg/kg/injection, schedule: Q01DX005 (ip), vehicle: saline with Tween-80
[13] = dose: 6.25 mg/kg/injection, schedule: Q01DX005 (ip), vehicle: Klucel (hydroxypropylcellulose) (HPC)
[14] = dose: 12.5 mg/kg/injection, schedule: Q01DX005 (ip), vehicle: Klucel (hydroxypropylcellulose) (HPC)
[15] = dose: 12.5 mg/kg/injection, schedule: Q01DX005 (ip), vehicle: saline with Tween-80
[16] = dose: 50.0 mg/kg/injection, schedule: Q01DX009 (ip), vehicle: saline
[17] = dose: 100.0 mg/kg/injection, schedule: Q01DX009 (ip), vehicle: saline
[18] = dose: 200.0 mg/kg/injection, schedule: Q01DX009 (ip), vehicle: saline
[19] = dose: 100.0 mg/kg/injection, schedule: Q01DX009 (ip), vehicle: saline with Tween-80
[20] = dose: 200.0 mg/kg/injection, schedule: Q01DX009 (ip), vehicle: saline with Tween-80
[21] = dose: 50.0 mg/kg/injection, schedule: Q01DX009 (ip), vehicle: saline with Tween-80
[22] = dose: 60.0 mg/kg/injection, schedule: Q01DX005 (ip), vehicle: Klucel (hydroxypropylcellulose) (HPC)
[23] = dose: 120.0 mg/kg/injection, schedule: Q01DX005 (ip), vehicle: Klucel (hydroxypropylcellulose) (HPC)
[24] = dose: 240.0 mg/kg/injection, schedule: Q01DX005 (ip), vehicle: Klucel (hydroxypropylcellulose) (HPC)
[25] = dose: 50.0 mg/kg/injection, schedule: Q01DX005 (ip), vehicle: Klucel (hydroxypropylcellulose) (HPC)
[26] = dose: 100.0 mg/kg/injection, schedule: Q01DX005 (ip), vehicle: Klucel (hydroxypropylcellulose) (HPC)

## CCCCP(=O)(CC(=O)O)c1ccccc1 (stereo unspecified)
[1]
  T/C: 98 % of control
[2]
  T/C: 99 % of control
[3]
  T/C: 102 % of control

## O=C(Nc1cc(NC(=O)n2nnc3ccccc32)c(Br)cc1Br)n1nnc2ccccc21
[4]
  T/C: 91 % of control
[5]
  T/C: 89 % of control
[6]
  T/C: 97 % of control

## CCCCCCCCCCCCCC1C=CCC1 (stereo unspecified)
[7]
  T/C: 101 % of control
[8]
  T/C: 99 % of control
[9]
  T/C: 100 % of control

## O=C(/C=C/c1ccc(Cl)c(Cl)c1)c1cccc(O)c(=O)c1
dose: 25.0 mg/kg/injection, schedule: Q01DX009 (ip), vehicle: Klucel (hydroxypropylcellulose) (HPC)
  T/C: 102 % of control
[4]
  T/C: 111 % of control and 118 % of control
[5]
  T/C: 118 % of control
[6]
  T/C: 118 % of control

## CC(NC(=O)OCc1ccccc1)C(=O)NC(CCCN=C(N)N)C(=O)O (stereo not drawn) (Cbz-Ala-Arg-OH; configuration not given here)
[10]
  T/C: 100 % of control
[11]
  T/C: 105 % of control
[12]
  T/C: 108 % of control

## CC12OC(=O)C(C(N)=O)=C1C=C(c1ccccc1)CC2c1ccccc1 (stereo unspecified)
[1]
  T/C: 96 % of control
[2]
  T/C: 96 % of control
[3]
  T/C: 89 % of control

## COc1ccc2nc(C)c3c(c2c1)C(=O)N(CCCN1CCN(CCCN2C(=O)c4c(C)nc5ccc(OC)cc5c4C2=O)CC1)C3=O
[13]
  T/C: 93 % of control
[14]
  T/C: 90 % of control
dose: 25.0 mg/kg/injection, schedule: Q01DX005 (ip), vehicle: Klucel (hydroxypropylcellulose) (HPC)
  T/C: 96 % of control

## CCCCCC(CN(C)C)C(=O)/C=C/c1ccc(F)cc1 (stereo unspecified)
[15]
  T/C: 98 % of control
dose: 25.0 mg/kg/injection, schedule: Q01DX005 (ip), vehicle: saline with Tween-80
  T/C: 104 % of control
[10]
  T/C: 107 % of control and 118 % of control
[11]
  T/C: 103 % of control

## O=C(O)C(O)C(O)C(=O)O.[Bi].[Na+] (stereo unspecified)
dose: 12.5 mg/kg/injection, schedule: Q01DX009 (ip), vehicle: saline
  T/C: 113 % of control
dose: 25.0 mg/kg/injection, schedule: Q01DX009 (ip), vehicle: saline
  T/C: 115 % of control
[16]
  T/C: 87 % of control and 98 % of control
[17]
  T/C: 93 % of control

## CC1=CCCC(C)(C)C1/C=C(/C#N)C(=O)N=C(N)N (stereo unspecified)
[16]
  T/C: 99 % of control
[17]
  T/C: 97 % of control
[18]
  T/C: 99 % of control

## O=c1[nH]c2ccccc2[nH]c1=O
[16]
  T/C: 100 % of control
[19]
  T/C: 94 % of control
[20]
  T/C: 92 % of control
[18]
  T/C: 100 % of control and 97 % of control
dose: 400.0 mg/kg/injection, schedule: Q01DX009 (ip), vehicle: saline
  T/C: 88 % of control

## CN1CCN(Cc2oc(CO)cc(=O)c2O)CC1
dose: 60.0 mg/kg/injection, schedule: Q01DX005 (ip), vehicle: saline
  T/C: 103 % of control
dose: 120.0 mg/kg/injection, schedule: Q01DX005 (ip), vehicle: saline
  T/C: 92 % of control
dose: 240.0 mg/kg/injection, schedule: Q01DX005 (ip), vehicle: saline
  T/C: 104 % of control

## O=C(O)c1ccccc1N=N/C(=N\Nc1ccccc1C(=O)O)c1ccnc2ccccc12
[21]
  T/C: 100 % of control
[19]
  T/C: 97 % of control
[20]
  T/C: 103 % of control

## CC(C)(C)OC(=O)NC(CCCCNC=O)C(=O)O (stereo unspecified)
[10]
  T/C: 95 % of control
[11]
  T/C: 96 % of control
[12]
  T/C: 104 % of control

## O=C1C2C3C=CC(C3)C2C(=O)N1O (stereo unspecified)
[10]
  T/C: 101 % of control
[11]
  T/C: 100 % of control
[12]
  T/C: 100 % of control

## COc1cc2c(cc1OC)C(c1cccc(Cl)c1)=NN=C(C)C2
[22]
  T/C: 105 % of control
[23]
  T/C: 101 % of control
[24]
  T/C: 96 % of control

## CC1=Nc2ccc(Cl)cc2N=C(C)C1
[7]
  T/C: 106 % of control
[8]
  T/C: 107 % of control
[9]
  T/C: 100 % of control

## COc1cccc(C(Cc2ccccc2)NCc2ccccc2)c1O (stereo unspecified)
[10]
  T/C: 105 % of control
[11]
  T/C: 103 % of control
[12]
  T/C: 101 % of control

## Cc1onc(-c2c(F)cccc2Cl)c1-c1ncc(-c2ccc(Cl)cc2)o1
[1]
  T/C: 98 % of control
[2]
  T/C: 94 % of control
[3]
  T/C: 99 % of control

## c1cncc(-c2c3ccccc3cc3ccc4ccccc4c23)c1
[10]
  T/C: 104 % of control
[11]
  T/C: 103 % of control
[12]
  T/C: 100 % of control

## CS(=O)(=O)C(Cl)(Cl)Cl
[1]
  T/C: 105 % of control
[2]
  T/C: 107 % of control
[3]
  T/C: 112 % of control

## CCOC(=O)NC(NC(=O)OCC)C(=O)Nc1cccc2c(OC(=O)C(NC(=O)OCC)NC(=O)OCC)c(N=Nc3ccc(S(=O)(=O)Nc4nccs4)cc3)cc(N=Nc3ccc(S(=O)(=O)Nc4nccs4)cc3)c12 (tested in a mixture with another compound)
[10]
  T/C: 117 % of control
[11]
  T/C: 112 % of control and 94 % of control

## COC(=O)C(C)n1c(C(C)C)csc1=S (stereo unspecified)
[10]
  T/C: 111 % of control
[11]
  T/C: 110 % of control
[12]
  T/C: 98 % of control

## O=C(O)C(Cc1ccc([N+](=O)[O-])cc1)NCc1ccco1 (stereo unspecified)
[21]
  T/C: 119 % of control
[19]
  T/C: 119 % of control

## Nc1nc(N)c(Cc2ccccn2)cc1Cc1ccccn1
[25]
  T/C: 98 % of control
[26]
  T/C: 103 % of control

## NC(=S)c1ccc(C=NCc2ccccc2)cc1
dose: 100.0 mg/kg/injection, schedule: Q04DX002 (ip), vehicle: Klucel (hydroxypropylcellulose) (HPC)
  T/C: 100 % of control
dose: 200.0 mg/kg/injection, schedule: Q04DX002 (ip), vehicle: Klucel (hydroxypropylcellulose) (HPC)
  T/C: 100 % of control
dose: 400.0 mg/kg/injection, schedule: Q04DX002 (ip), vehicle: Klucel (hydroxypropylcellulose) (HPC)
  T/C: 100 % of control

## Cc1cc(C)c(C#N)c(OCC2CCCO2)n1 (stereo unspecified)
[10]
  T/C: 95 % of control
[11]
  T/C: 95 % of control

## COC(=O)/C=c1/s/c(=C\C(C)=N)[nH]c1=O
[1]
  T/C: 90 % of control
[2]
  T/C: 89 % of control

## COc1ccc(C(C)c2cc3c(cc2OC)OCO3)cc1 (stereo unspecified)
[15]
  T/C: 101 % of control and 109 % of control and 95 % of control
dose: 25.0 mg/kg/injection, schedule: Q01DX005 (ip), vehicle: saline + alcohol
  T/C: 92 % of control
dose: 50.0 mg/kg/injection, schedule: Q01DX005 (ip), vehicle: saline + alcohol
  T/C: 91 % of control
dose: 100.0 mg/kg/injection, schedule: Q01DX005 (ip), vehicle: saline + alcohol
  T/C: 93 % of control
dose: 200.0 mg/kg/injection, schedule: Q01DX005 (ip), vehicle: saline + alcohol
  T/C: 106 % of control

## CCn1c2ccc([N+](=O)[O-])cc2c2c([N+](=O)[O-])c(-n3cccc3)ccc21
[10]
  T/C: 95 % of control
[11]
  T/C: 90 % of control
[12]
  T/C: 88 % of control

## COc1ccccc1N=Nc1c(-c2cccs2)nn(C(N)=S)c1C(F)(F)F
[22]
  T/C: 99 % of control
[23]
  T/C: 97 % of control
[24]
  T/C: 89 % of control

## CCOC(=O)c1c(C)c2c(n1C)CCc1c-2nc(N)[nH]c1=O
[4]
  T/C: 97 % of control
[5]
  T/C: 97 % of control
[6]
  T/C: 88 % of control

## Nc1ncnc2c1ncn2[C@@H](C=O)O[C@@H](C=O)CO
dose: 3.13 mg/kg/injection, schedule: Q01DX009 (ip), vehicle: other
  T/C: 155 % of control
dose: 6.25 mg/kg/injection, schedule: Q01DX009 (ip), vehicle: other
  T/C: 150 % of control and 169 % of control

## C[C@H]1C[C@H](c2ccccc2)[C@@H](c2ccccc2)C(=O)O1
dose: 100.0 mg/kg/injection, schedule: Q04DX003 (ip), vehicle: Klucel (hydroxypropylcellulose) (HPC)
  T/C: 93 % of control
dose: 200.0 mg/kg/injection, schedule: Q04DX003 (ip), vehicle: Klucel (hydroxypropylcellulose) (HPC)
  T/C: 92 % of control
dose: 400.0 mg/kg/injection, schedule: Q04DX003 (ip), vehicle: Klucel (hydroxypropylcellulose) (HPC)
  T/C: 92 % of control

## CN1C(=O)c2c(ccc3c2OCO3)[C@@]2(C)C(=O)Cc3cc4c(cc3[C@H]12)OCO4
[13]
  T/C: 89 % of control
[14]
  T/C: 88 % of control

## COc1cccc(OC)c1OC(=O)Nc1ccccc1F
[1]
  T/C: 102 % of control
[2]
  T/C: 105 % of control
[3]
  T/C: 102 % of control

## COc1cc2c(cc1OC)C(c1c(Cl)cccc1Cl)=NCC2
[25]
  T/C: 96 % of control
[26]
  T/C: 105 % of control
dose: 200.0 mg/kg/injection, schedule: Q01DX005 (ip), vehicle: Klucel (hydroxypropylcellulose) (HPC)
  T/C: 110 % of control
